Among the data in patent US20200040025A1, “URIDINE NUCLEOSIDE DERIVATIVES, COMPOSITIONS AND METHODS OF USE” (Tufts University, priority 2016, published 2020) are EC50 values, retold here.

A value given as a limit tells only on which side of the number the result lay.

T1 sequence (Q15077 whole entry): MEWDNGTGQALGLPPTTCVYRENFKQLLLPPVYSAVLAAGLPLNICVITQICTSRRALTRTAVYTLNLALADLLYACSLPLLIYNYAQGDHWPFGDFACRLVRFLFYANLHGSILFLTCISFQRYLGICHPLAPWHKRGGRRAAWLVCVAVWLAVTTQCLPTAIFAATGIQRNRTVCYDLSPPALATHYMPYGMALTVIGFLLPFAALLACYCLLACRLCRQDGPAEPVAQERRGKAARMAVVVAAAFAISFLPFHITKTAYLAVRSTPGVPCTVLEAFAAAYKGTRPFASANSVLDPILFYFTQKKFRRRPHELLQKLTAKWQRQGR

The experiment has as its target T1, P2Y6 receptor (Homo sapiens, UniProt Q15077).
T1 construct: expressed in transfected cells; host or cells: 1321N1 human astrocytoma cells
Nature of the experiment: Activation of P2Y6 receptor: receptor-induced Ca2+ changes measured with fluo-4. To be noted: sodium salts of the test compounds; 1321N1 human astrocytoma cells expressing P2Y6; fluo-4 Ca2+ fluorescence; nonlinear curve fit; read-out: EC50 of synthetic compounds for activation of P2Y6 receptor. The experiment is classed as cell-based. The protocol: Synthetic compounds were tested for activation of P2Y6 receptor by measuring receptor induced Ca^2+ changes with the fluorescent Ca^2+ indicator fluo-4. 1321N1 human astrocytoma cell lines either expressing P2Y2, P2Y4 or P2Y6. Receptors were plated into 24-well plates. Two days after plating, fluorometric measurements were made and responses of cells to a serial dilution of the sodium salts of the test compounds were determined. P2Y6 receptor mediated Ca^2+ fluorescent change was determined by normalized accumulation of fluorescent change of 3 timepoints after compound administration subtracted by value from ACSF control. Changes in fluorescent intensity were plotted corresponding to compound concentration in GraphPad.
Regarding `O=c1ccn([C@@H]2O[C@H](COP(=O)(O)OP(=O)(O)O)C(O)C2O)c(=O)n1Cc1cnc(-c2ccccc2)s1` (stereo partly drawn) [Compound 44], the EC50 was in the range of 1000 to 2000 nM.

Regarding `O=c1ccn([C@@H]2O[C@H](COP(=O)(O)OP(=O)(O)O)C(O)C2O)c(=O)n1Cc1cccc(-c2ccccc2)c1` (stereo partly drawn) [Compound 41], the concentration giving a half-maximal response (EC50) is less than 500 nM.

`O=c1ccn([C@@H]2O[C@H](COP(=O)(O)OP(=O)(O)O)C(O)C2O)c(=O)n1Cc1ncccc1-c1ccccc1` (stereo partly drawn) [Compound 31]: the concentration for a half-maximal effect (EC50) is greater than 2000 nM.

As to `O=c1ccn([C@@H]2O[C@H](COP(=O)(O)OP(=O)(O)O)C(O)C2O)c(=O)n1Cc1cc(C2CCCC2)ccn1` (stereo partly drawn) [Compound 38], the concentration giving a half-maximal response (EC50) lay in the range of 500 to 1000 nM.

Turning to `O=c1ccn([C@@H]2O[C@H](COP(=O)(O)OP(=O)(O)O)C(O)C2O)c(=O)n1Cc1cc(-c2ccccn2)ccn1` (stereo partly drawn) [Compound 34], the half-maximal effective concentration (EC50) lay in the range of 500 to 1000 nM.

Turning to `O=c1ccn([C@@H]2O[C@H](COP(=O)(O)OP(=O)(O)O)C(O)C2O)c(=O)n1Cc1cc(C2CCCCC2)ccn1` (stereo partly drawn) [Compound 39], the EC50 lay in the range of 500 to 1000 nM.

Consider `O=c1ccn([C@@H]2O[C@H](COP(=O)(O)OP(=O)(O)O)C(O)C2O)c(=O)n1Cc1cc(Cc2ccccc2)ccn1` (stereo partly drawn) [Compound 35], for which the concentration giving a half-maximal response (EC50) was less than 500 nM.

For the compound `O=c1ccn([C@@H]2O[C@H](COP(=O)(O)OP(=O)(O)O)C(O)C2O)c(=O)n1Cc1cnc(-c2ccccc2)o1` (stereo partly drawn) [Compound 46], the EC50 fell in the range of 500 to 1000 nM.

As to `O=c1ccn([C@@H]2O[C@H](COP(=O)(O)OP(=O)(O)O)C(O)C2O)c(=O)n1Cc1ccc(-c2ccccc2)cn1` (stereo partly drawn) [Compound 29], the EC50 is less than 500 nM.

As to `O=c1ccn([C@@H]2O[C@H](COP(=O)(O)OP(=O)(O)O)C(O)C2O)c(=O)n1Cc1ccc(-c2ccccc2)s1` (stereo partly drawn) [Compound 42], the EC50 was less than 500 nM.

Turning to `O=c1ccn([C@@H]2O[C@H](COP(=O)(O)OP(=O)(O)O)C(O)C2O)c(=O)n1Cc1cc(Oc2ccccc2)ccn1` (stereo partly drawn) [Compound 36], the 50% effective concentration (EC50) was less than 500 nM.

On to `O=c1ccn([C@@H]2O[C@H](COP(=O)(O)OP(=O)(O)O)C(O)C2O)c(=O)n1Cc1cc(N2CCCCC2)ccn1` (stereo partly drawn) [Compound 40], for which the EC50 was greater than 2000 nM.

Consider `O=c1ccn([C@@H]2O[C@H](COP(=O)(O)OP(=O)(O)O)C(O)C2O)c(=O)n1Cc1ccc(-c2ccccc2)o1` (stereo partly drawn) [Compound 47], for which the EC50 was less than 500 nM.

For the compound `O=c1ccn([C@@H]2O[C@H](COP(=O)(O)OP(=O)(O)O)C(O)C2O)c(=O)n1Cc1cccc(-c2ccccc2)n1` (stereo partly drawn) [Compound 30], the EC50 was 1000 to 2000 nM.

For `O=c1ccn([C@@H]2O[C@H](COP(=O)(O)OP(=O)(O)O)C(O)C2O)c(=O)n1Cc1cc(Nc2ccccc2)ccn1` (stereo partly drawn) [Compound 37], the EC50 was 500 to 1000 nM.

For the compound `O=c1ccn([C@@H]2O[C@H](COP(=O)(O)OP(=O)(O)O)C(O)C2O)c(=O)n1Cc1cc(-c2ccncc2)ccn1` (stereo partly drawn) [Compound 32], the EC50 lay within 1000 to 2000 nM.

With `O=c1ccn([C@@H]2O[C@H](COP(=O)(O)OP(=O)(O)O)C(O)C2O)c(=O)n1Cc1ncc(-c2ccccc2)o1` (stereo partly drawn) [Compound 45], the EC50 is less than 500 nM.

`O=c1ccn([C@@H]2O[C@H](COP(=O)(O)OP(=O)(O)O)C(O)C2O)c(=O)n1Cc1ncc(-c2ccccc2)s1` (stereo partly drawn) [Compound 43]: the EC50 was less than 500 nM.

As usually defined, the EC50 is the concentration that produces a half-maximal response.
